The record followed here is patent US12194003B2, “Compositions for treating acne and dermatological conditions” (priority 2020, dated 2025).

Several values for one entry are separate records, joined by “and”; a condition that tells them apart may be missing. Identical values can stand only once. Like-named read-outs stand apart in the source and are kept apart here.

One series deals with Primary human sebocytes. The experiment in a line: Sebocyte ATP metabolism luminescence assay (Celltiter-Glo), percent luminescence reduction. It counts as cell-based. Conditions: for % Luminescence Reduction (Repeat 1, 2, 3): niacinamide 0 μM. Here is the method: The ability of various combinations of ingredients to increase ATP metabolism is evaluated via a sebocyte assay according to the following protocol. Immortalized human sebaceous gland cell lines (sebocytes) are a well-established model for studying acne. Primary human sebocytes Batch #13140680) were obtained from Celprogen™ and grown according to manufacturer's instructions. The cells were seeded at a concentration of 5000 cells per cm^2 in a tissue culture treated flask and incubated at 37° C. in a humidified incubator in the presence of 5% CO2 (all subsequent incubations were subject to these conditions). At 60-80% confluency, cells were passaged by detaching cells using TrypLE™ Express (Sigma). Cells were seeded in a black 96-well half area plate at a concentration of 5000 cells per well and allowed to equilibrate overnight at 37° C.
[…] Various concentrations of CBD (0 μM, 1 μM, 3 μM, 10 μM, 30 μM), niacinamide (0 μM, 4 μM, 10 μM, 20 μM, 40 μM), and urolithin A (0 μM, 3 μM, 10 μM, 30 μM, 100 μM) were evaluated in triplicate. The ability of each composition to increase ATP metabolism was determined using a luminescence assay (Celltiter-Glo™) according to manufacturer's instructions.
Table 11 reports the percent luminescence reductions for cells treated with each composition compared to cells that are not administered a composition of the disclosure. This value is calculated using the formula: (1−(treatment luminescence/control luminescence))*100. The luminescence measurements in this assay are proportional to the number of metabolically active cells in a sample. Cells that are metabolically active (e.g., have functioning mitochondria) consume ATP and convert luciferin to oxyluciferin.

The next series relates to sebocyte. As to the kind of experiment: Sebocyte cell viability / cell death. Format: cell-based, human. To be noted: L-ergothioneine 1 nM to 100 μM; FIG. 6. Here is the method:
Sebocytes were incubated with compositions comprising CBD, niacinamide, urolithin A, or combination thereof. Various concentrations of CBD (0 μM, 1 μM, 3 μM, 10 μM, 30 μM), niacinamide (0 μM, 4 μM, 10 μM, 20 μM, 40 μM), and urolithin A (0 μM, 3 μM, 10 μM, 30 μM, 100 μM) were evaluated in triplicate. The ability of each composition to increase ATP metabolism was determined using a luminescence assay (Celltiter-Glo™) according to manufacturer's instructions.
These assays also tested the ability of the antioxidant L-ergothioneine at concentrations ranging from 1 nM to 100 μM to affect skin cell viability and influence mitochondrial function.

With `C=C(C)[C@@H]1CCC(C)=C[C@H]1c1c(O)cc(CCCCC)cc1O` [CBD, cannabidiol], the “% Luminescence Reduction (Repeat 1, 2, 3)” value with Primary human sebocytes (CBD 1 μM, urolithin A 0 μM) was 5% and 9%.

Take `C[N+](C)(C)[C@@H](Cc1c[nH]c(=S)[nH]1)C(=O)[O-]` [L-ergothioneine]: in the series on Primary human sebocytes (L-ergothioneine 1 nM to 100 μM, FIG. 6), the ATP metabolism entry is “retain viability and ATP metabolism”. For the same molecule, in the series on sebocyte, the cell viability result is reported as “retain viability”.

For the molecule `NC(=O)c1cccnc1` [Niacinamide, niacinamide], the “Luminescence Reduction of Niacinamide Alone” value in the series on Primary human sebocytes was 3.0; with Primary human sebocytes (Niacinamide 4.0 μM), 3.0%; in the series with Primary human sebocytes (Niacinamide 10.0 μM) it was 35.0%; with Primary human sebocytes (Niacinamide 20.0 μM), 52.0%; in the series on Primary human sebocytes (Niacinamide 40.0 μM), 90.7%; in the series on Primary human sebocytes (niacinamide 4.0 μM) it was 3.0. Besides, the “Luminescence Reduction of Niacinamide Alone” value in the series on Primary human sebocytes (niacinamide 10.0 μM) turned out to be 35.0; in the series on Primary human sebocytes (niacinamide 20.0 μM) it was 52.0; in the series with Primary human sebocytes (niacinamide 40.0 μM), 90.7.

Take `O=c1oc2cc(O)ccc2c2ccc(O)cc12` [Urolithin A, 3,8-dihydroxybenzo[c]chromen-6-one]: the “Luminescence Reduction of Urolithin A Alone” value turned out to be 16.7% in the series with Primary human sebocytes (30 µM), 18.7% with Primary human sebocytes (Urolithin A 3.0 μM), 13.3% with Primary human sebocytes (Urolithin A 10.0 μM) and 29.0% in the series on Primary human sebocytes (Urolithin A 100.0 μM). For the same molecule, the “% Luminescence Reduction (Repeat 1, 2, 3)” value with Primary human sebocytes (CBD 0 μM, urolithin A 30 μM) was 15% and 17% and 18%; in the series with Primary human sebocytes (CBD 0 μM, urolithin A 100 μM), 25% and 35% and 27%.
